Measured values: US5998427A, “Androstenones” (Glaxo Wellcome Inc., priority 1998, dated 1999)

Assays:
Human Adrenal 3BHSD = target: T1, Human Adrenal 3BHSD (Homo sapiens, UniProt P26439); experiment: Inhibition of human adrenal 3β-hydroxy-Δ^5-steroid dehydrogenase/3-keto-Δ^5-steroid isomerase (conversion of DHEA to androstenedione, human adrenal microsomes); format: biochemical; conditions: pH 7.5, DHEA substrate, 1 mM NAD^+, 1 to 60 minutes
T1 construct: microsomes derived from human adrenal tissues; from tissue; host or cells: human adrenal tissue (microsomes)
T1 sequence (P26439 1-372): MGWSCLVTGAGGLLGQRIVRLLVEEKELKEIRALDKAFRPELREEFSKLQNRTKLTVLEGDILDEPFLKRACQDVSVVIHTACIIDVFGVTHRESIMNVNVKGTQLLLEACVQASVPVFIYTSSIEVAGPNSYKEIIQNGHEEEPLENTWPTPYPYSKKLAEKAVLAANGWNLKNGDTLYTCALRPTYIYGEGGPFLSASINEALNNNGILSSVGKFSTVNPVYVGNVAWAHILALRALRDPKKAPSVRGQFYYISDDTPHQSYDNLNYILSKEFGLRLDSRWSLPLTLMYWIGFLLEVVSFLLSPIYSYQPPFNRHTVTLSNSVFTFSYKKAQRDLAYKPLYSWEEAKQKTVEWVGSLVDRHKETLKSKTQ
Description: Enzyme activities are measured using microsomes derived from human adrenal tissues. Microsomes were prepared by homogenization of the tissue followed by differential centrifugation of the homogenate. Microsome extracts were incubated with varying concentrations of dehydroepiandrosterone (DHEA), 1 mM NAD^+, and varying amounts of the compounds of Formula (I), i.e. a test compound, in pH 7.5 buffer for a period of time within the range of 1 to 60 minutes. Corresponding incubations were carried out with no test compound as a control study. The percentage of conversion of DHEA to androstenedione in the presence of test compounds compared to the corresponding conversion in the control study was estimated using HPLC with radiochemical detection.

[1] = system: bovine adrenal 3β-hydroxy-Δ^5 -steroid dehydrogenase/3-keto-Δ^5 -steroid isomerase (3BHSD); conditions: literature (Tan; Brandt and Levy); cited from earlier work
[2] = literature (McConnell; Rasmusson); cited from earlier work
[3] = system: porcine granulosa cell 3β-hydroxy-Δ^5 -steroid dehydrogenase/3-keto-Δ^5 -steroid isomerase (3BHSD); conditions: literature (Tan; Brandt and Levy); cited from earlier work
[4] = target: T2, human type 1 5α-reductase (Homo sapiens, UniProt P18405); experiment: Inhibition of human type 1 5α-reductase (conversion of testosterone to DHT, microsomes of baculovirus infected SF9 cells); format: biochemical; conditions: pH 7.0, 100 nM testosterone, 10 min preincubation, 10-120 min; read-out: IC50 Human Type 1 5AR
T2 construct: made in house; host or cells: recombinant baculovirus infected SF9 cells (microsomes)
T2 sequence (P18405 1-259): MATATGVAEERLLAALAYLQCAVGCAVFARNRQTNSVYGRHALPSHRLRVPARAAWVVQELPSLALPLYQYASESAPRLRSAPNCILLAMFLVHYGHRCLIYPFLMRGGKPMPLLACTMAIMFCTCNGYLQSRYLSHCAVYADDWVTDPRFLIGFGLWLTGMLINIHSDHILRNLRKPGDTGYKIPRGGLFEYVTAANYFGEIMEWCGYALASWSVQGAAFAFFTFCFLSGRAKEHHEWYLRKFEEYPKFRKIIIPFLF
Description: (§1) Enzyme activities may be determined using microsomes derived from: 1) prostate tissue from benign prostatic hyperplasia (BPH) patients; 2) recombinant baculovirus infected SF9 cells that express human type 1 5α-reductase; or 3) recombinant baculovirus infected SF9 cells that express human type 2 5α-reductase. Microsomes were prepared by homogenization of the tissue or cells, followed by differential centrifugation of the homogenate. Microsome extracts were incubated with varying concentrations of [1,2,6,7-^3 H]-testosterone, 1 mM NADPH, and varying amounts of the compounds of formula (I,) i.e. a test compound, in buffer containing a NADPH regenerating system capable of maintaining NADPH concentrations for a period of time within the range 0.5-240 minutes. Corresponding incubations were carried out with no test compound as a control study.
(§2) For type 1 IC50 measurements, assay components except testosterone were preincubated for 10 minutes at pH 7.0, and following the addition of 100 nM testosterone the assays were allowed to proceed for 10-120 minutes. For type 2 IC50 measurements, assay components except testosterone were preincubated for 20 minutes at pH 6.0, and following the addition of 8 nM testosterone the assays were allowed to proceed for 20-40 minutes. […]

[5] = target: T3, human type 2 5α-reductase (Homo sapiens, UniProt P31213); experiment: Inhibition of human type 2 5α-reductase (conversion of testosterone to DHT, microsomes); format: biochemical; conditions: pH 6.0, 8 nM testosterone, 20 min preincubation, 20-40 min; read-out: IC50 Human Type 2 5AR
T3 construct: made in house; host or cells: recombinant baculovirus infected SF9 cells (microsomes); prostate tissue of BPH patients is printed as an alternative
T3 sequence (P31213 1-254): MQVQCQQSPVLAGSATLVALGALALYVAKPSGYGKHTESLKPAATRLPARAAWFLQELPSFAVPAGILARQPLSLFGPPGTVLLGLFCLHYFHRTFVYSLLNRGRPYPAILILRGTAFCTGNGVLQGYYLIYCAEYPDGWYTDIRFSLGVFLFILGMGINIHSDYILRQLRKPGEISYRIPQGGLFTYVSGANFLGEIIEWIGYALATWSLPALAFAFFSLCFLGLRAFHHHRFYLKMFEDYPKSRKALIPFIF
Description: as §1, §2

SMILES	Ki (Human Adrenal 3BHSD)	also measured
CCN(CC)C(=O)[C@H]1CC[C@H]2[C@@H]3CC[C@H]4N(C)C(=O)CC[C@]4(C)[C@H]3CC[C@]12C [Compound 4-MA]	–	inhibition of bovine adrenal 3BHSD [1]: potent inhibition; hepatotoxicity [2]: hepatotoxicity; inhibition of porcine granulosa cell 3BHSD [3]: potent inhibition
C[C@]12C=CC(=O)N[C@@H]1CC[C@@H]1[C@@H]2CC[C@]2(C)[C@@H](C(=O)NC3(c4ccc5c(c4)OCO5)CCCCC3)CC[C@@H]12 [Compound 12, 17β-N-1-(3,4-Methylenedioxyphenyl)cyclohexylcarbamoyl-4-aza-5α-androst-1-en-3-one]	10 to 1000 nM	IC50 [4]: 10 to 1000 nM
CC(C)(C)c1ccc(C(F)(F)F)cc1NC(=O)[C@H]1CC[C@H]2[C@@H]3CC[C@H]4NC(=O)C=C[C@]4(C)[C@H]3CC[C@]12C [Compound 24, 17β-N-(2-t-Butyl-5-trifluoromethyl)phenylcarbamoyl-4-aza-5α-androst-1-en-3-one]	–	IC50 [5]: 1 to 10 nM
CN1C(=O)CC[C@]2(C)[C@H]3CC[C@]4(C)[C@@H](C(=O)Nc5cc(C(C)(C)C)ccc5C(C)(C)C)CC[C@H]4[C@@H]3CC[C@@H]12 [Compound 29, 17β-N-(2,5-Di-t-butyl)phenylcarbamoyl-4-methyl-4-aza-5α-androstan-3-one]	10 to 1000 nM	–

Continued, in another order:

Ki (Human Adrenal 3BHSD)	SMILES	also measured
10 to 1000 nM	CN1C(=O)CC[C@]2(C)[C@H]3CC[C@]4(C)[C@@H](C(=O)NC5(c6ccc(Cl)cc6)CCCC5)CC[C@H]4[C@@H]3CC[C@@H]12 [Compound 2, 17β-N-1-(4-Chlorophenyl)cyclopentylcarbamoyl-4-methyl-4-aza-5α-androstan-3-one]	–
10 to 1000 nM	CN1C(=O)CC[C@]2(C)[C@H]3CC[C@]4(C)[C@@H](C(=O)Nc5cc(C(F)(F)F)ccc5C(F)(F)F)CC[C@H]4[C@@H]3CC[C@@H]12 [Compound 23, 17β-N-(2,5-bis(Trifluoromethyl))phenylcarbamoyl-4-methyl-4-aza-5α-androstan-3-one]	–
10 to 1000 nM	CN1C(=O)CC[C@]2(C)[C@H]3CC[C@]4(C)[C@@H](C(=O)Nc5cc(C(F)(F)F)ccc5C(C)(C)C)CC[C@H]4[C@@H]3CC[C@@H]12 [Compound 26, 17β-N-(2-t-Butyl-5-trifluoromethyl)phenylcarbamoyl-4-methyl-4-aza-5α-androstan-3-one]	–
10 to 1000 nM	CC(C)(C)c1ccc(C(C)(C)C)c(NC(=O)[C@H]2CC[C@H]3[C@@H]4CC[C@H]5NC(=O)C=C[C@]5(C)[C@H]4CC[C@]23C)c1 [Compound 27, 17β-N-(2,5-Di-t-butyl)phenylcarbamoyl-4-aza-5α-androst-1-en-3-one]	–
